Source: PubChem BioAssay (NCI)
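Five concentrations, 48 hours, 96-well plates. GI50 marks 50% less growth. TGI: total growth inhibition.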

What was measured:
Assay in all cases: NCI-60 cell line screen, 48 h
[1] = tested on: HCC-2998 colon
[2] = tested on: RPMI-8226 leukemia
[3] = tested on: CAKI-1 renal
[4] = tested on: UACC-62 melanoma
[5] = tested on: OVCAR-4 ovarian
[6] = tested on: KM12 colon
[7] = tested on: NCI-H460 lung
[8] = tested on: BT-549 breast
[9] = tested on: MCF7 breast
[10] = tested on: TK-10 renal

Row | SMILES | TGI [1] | TGI [2] | TGI [3] | TGI [4] | TGI [5] | TGI [6] | TGI [7] | TGI [8] | TGI [9] | TGI [10] | GI50 [8] | GI50 [2] | GI50 [4] | GI50 [9] | GI50 [10] | GI50 [6] | GI50 [7] | GI50 [1] | GI50 [3] | GI50 [5]
1 | OC1CCSc2ccccc21 (configuration not stated) | > 100 µM | > 100 µM | > 100 µM | > 100 µM | > 100 µM | > 100 µM | > 100 µM |  |  |  |  |  |  |  |  |  |  |  |  | 
2 | CCOC(=O)c1cccc(N=Nc2ncc(/C=C/C(=O)OC)[nH]2)c1 | 43.8 µM | 40.5 µM | > 100 µM | 63.2 µM | > 100 µM | 82.2 µM | 34.5 µM | > 100 µM | 86.2 µM | > 100 µM |  |  |  |  |  |  |  |  |  | 
3 | NC(N)=N/N=C/c1c(-c2cccs2)nc2n1CCS2 |  | 39.9 µM |  | 26.4 µM |  | 29.2 µM | 40.6 µM | 44.8 µM | 35.1 µM | 46.5 µM | 21.4 µM | 18.6 µM | 13.5 µM | 17.6 µM | 18.3 µM | 14.2 µM | 18.7 µM |  |  | 
4 | CC(C)C(=O)CC(c1ccc(Br)cc1)N1N=C(C(C)C)CC1c1ccc(Br)cc1 (configuration not stated) | > 100 µM |  | > 100 µM |  | > 100 µM | > 100 µM | > 100 µM |  |  | > 100 µM |  |  |  |  |  |  |  |  |  | 
5 | CS(=O)(=O)Nc1cccc(-c2ccc3ncnc(Nc4cncc(Cl)c4)c3c2)c1 | 5.27 µM | 6.77 µM | > 100 µM | 3.86 µM | > 100 µM | > 100 µM | > 100 µM | 7.39 µM |  | 5.44 µM | 2.34 µM | 2.14 µM | 1.75 µM |  | 0.748 µM | 2.92 µM | 3.18 µM | 2.4 µM | 2.57 µM | 4.16 µM
6 | O=S(C(c1ccccc1)=P(c1ccccc1)(c1ccccc1)c1ccccc1)c1ccc(Cl)cc1 (configuration not stated) | > 100 µM | > 100 µM | > 100 µM |  | 98.3 µM | 57.2 µM | > 100 µM |  | > 100 µM | > 100 µM |  |  |  |  |  |  |  |  |  | 
7 | O=C1CNc2cc(N3CCCCC3)ccc2N1 | > 100 µM | > 100 µM |  | > 100 µM | > 100 µM | > 100 µM | > 100 µM | > 100 µM | > 100 µM | > 100 µM |  |  |  |  |  |  |  |  |  | 
8 | CCOC(=O)/C=C/C1=C(Br)[C@@]2(C)CC[C@@H]3c4ccc(O)cc4CC[C@H]3[C@@H]2C1 | 28.8 µM | 6.6 µM | 30 µM | 19.4 µM | 27.7 µM | 29.7 µM | 28.4 µM | 27.3 µM | 26.7 µM | 31.7 µM |  |  |  |  |  |  |  |  |  | 
